Measurements from ChEMBL document CHEMBL1131982, “N-[2-(1-cyclohexenyl)ethyl]-N'-[2-(5-bromopyridyl)]-thiourea and N'-[2-(1-cyclohexenyl)ethyl]-N'-[2-(5-chloropyridyl)]-thiourea as potent inhibitors of multidrug-resistant human immunodeficiency virus-1” (Bioorg Med Chem Lett, 1999).

Tests used:
[1] = target: Human immunodeficiency virus type 1 reverse transcriptase (Human immunodeficiency virus 1, UniProt Q72547); assay: Inhibitory activity against recombinant HIV-1 reverse transcriptase (rRT)
[2] = Anti-HIV activity by its ability to inhibit the replication of HIV-1 strain A17 (Y181C) in peripheral blood mononuclear cells (PBMC); assay type: functional; conditions: Homo sapiens
[3] = Anti-HIV activity by its ability to inhibit the replication of HIV-1 strain RT-MDR(V106A) in peripheral blood mononuclear cells (PBMC); assay type: functional; conditions: Homo sapiens
[4] = Anti-HIV activity by its ability to inhibit the replication of HIV-1 strain A17 variant (Y181C,K103N) in peripheral blood mononuclear cells (PBMC); assay type: functional, Homo sapiens
[5] = Anti-HIV activity by its ability to inhibit the replication of HIV-1 strain HTLV IIIB in peripheral blood mononuclear cells (PBMC); assay type: functional; conditions: Homo sapiens
[6] = Compound was evaluated for the cytotoxic activity by using Microculture Tetrazolium assay (MTA); assay type: functional

With CC1(C)C2CC(C/N=C(\S)Nc3ccc(Br)cn3)CC1C2 (stereo not given) the IC50 [1] was > 100000 nM.

With S=C(NCCC1=CCCCC1)Nc1ccc(Cl)cn1 the IC50 [1] was 500 nM, the IC50 [2] was 68 nM and the IC50 [3] was 1 nM. The IC50 [4] was 30000 nM, the IC50 [5] was 3 nM and the CC50 [6] was > 100000 nM.

Work on FC(F)(F)c1ccc(/N=C(\S)NCCC2=CCCCC2)nc1 yielded an IC50 [1] of 4000 nM, an IC50 [2] of 300 nM and an IC50 [3] of 38 nM. The IC50 [4] was > 100000 nM, the IC50 [5] was 79 nM and the CC50 [6] was > 100000 nM.

In the case of S=C(NCC12CC3CC(CC(C3)C1)C2)Nc1ccc(Br)cn1, the IC50 [1] is reported as > 100000 nM.

In the case of S=C(NCCC1=CCCCC1)Nc1ccc(Br)cn1, the IC50 [1] is reported as 400 nM, the IC50 [3] is reported as 1 nM and the IC50 [4] is reported as 18700 nM. The IC50 [5] was 3 nM and the CC50 [6] was > 100000 nM.

For CC(C)Nc1cccnc1N1CCN(C(=O)c2cc3cc(NS(C)(=O)=O)ccc3[nH]2)CC1 [DELAVIRDINE], the IC50 [2] was 50000 nM, the IC50 [3] was 400 nM and the IC50 [4] was > 100000 nM. The IC50 [5] was 9 nM and the CC50 [6] was 3600 nM.

For CCOCn1c(Cc2ccccc2)c(C(C)C)c(=O)[nH]c1=O [EMIVIRINE], the IC50 [3] was 300 nM and the CC50 [6] was > 100000 nM.

For Cc1ccnc2c1NC(=O)c1cccnc1N2C1CC1 [NEVIRAPINE], the IC50 [2] was > 100000 nM, the IC50 [3] was 5000 nM and the IC50 [4] was > 100000 nM. For the same molecule, the IC50 [5] was 34 nM and the CC50 [6] was 10500 nM.

In the case of S=C(NCCc1ccccn1)Nc1ccc(Br)cn1 [TROVIRDINE], the IC50 [2] is reported as 500 nM, the IC50 [3] is reported as 20 nM and the IC50 [4] is reported as > 100000 nM. The IC50 [5] was 7 nM and the CC50 [6] was > 100000 nM.

Cc1cn([C@H]2C[C@H](N=[N+]=[N-])[C@@H](CO)O2)c(=O)[nH]c1=O [ZIDOVUDINE] showed an IC50 [2] of 6 nM, an IC50 [3] of 200 nM and an IC50 [4] of 4 nM. For the same molecule, the CC50 [6] was > 100000 nM.
